Results taken from patent US10617680B2 (CELGENE QUANTICEL RESEARCH, INC., priority 2017, dated 2020).
Like-named read-outs stand apart in the source and are kept apart here.

Target: CBP (Homo sapiens (Human), UniProt Q92793)
Assay: In vitro CBP inhibition (AlphaScreen, biotinylated H4-tetraacetyl peptide)
Type: binding
Procedure: The CBP-inhibitory activity of the compounds described herein was determined by calculating the IC50. More specifically, CBP inhibitor activity was assayed as follows: CBP was cloned and expressed in E. coli as His-tag protein and purified by Nickel affinity and gel-filtration chromatography. […] CBP binding and inhibition is assessed by monitoring the interaction of biotinylated H4-tetraacetyl peptide (AnaSpec, H4K5/8/12/16(Ac), biotin-labeled) with the target using the AlphaScreen technology (Perkin Elmer). In a 384-well ProxiPlate CBP (50 nM final) was combined with peptide (20 nM final) in 50 mM HEPES (pH 7.3), 10 mM NaCl, 0.25 mM TCEP, 0.1% (w/v) BSA, and 0.005% (w/v) Brij-35 either in the presence of DMSO (final 0.4% DMSO) or compound dilution series in DMSO. After 20 min incubation at room temp, Alpha-streptavidin donor beads and Nickel Chelate acceptor beads were added to a final concentration of 5 μg/mL.
The ability of the compounds disclosed herein to inhibit CBP activity was quantified and the respective IC50 value determined.

[1] = AlphaScreen, Table 29, read-out: CBP IC50

CBP, sequence (Q92793 1081-1197): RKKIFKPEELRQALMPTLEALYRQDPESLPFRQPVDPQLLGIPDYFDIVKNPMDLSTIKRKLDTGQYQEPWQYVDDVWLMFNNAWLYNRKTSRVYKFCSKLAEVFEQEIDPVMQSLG

Structure (SMILES)	IC50 [1] [nM]	other results
CC(=O)NC[C@@H]1CCN(c2cc(=O)n(C)cc2-c2cnn(Cc3ccccc3)c2)C1 (stereo in doubt) [Example 89, N-{1-[5-(1-benzyl-1H-pyrazol-4-yl)-1-methyl-2-oxo-1,2-dihydro-pyridin-4-yl]-pyrrolidin-3-ylmethyl}-acetamide]	< 500	
CC(=O)NC[C@H]1CCN(c2cc(=O)n(C)cc2-c2cnn(Cc3ccccc3)c2)C1 (stereo in doubt) [Example 90, N-{1-[5-(1-benzyl-1H-pyrazol-4-yl)-1-methyl-2-oxo-1,2-dihydro-pyridin-4-yl]-pyrrolidin-3-yl-methyl}-acetamide]	500 to 5000	
Cn1cc(-c2cnn(Cc3ccccc3)c2)c(-n2cccc2)cc1=O [5-(1-benzyl-1H-pyrazol-4-yl)-1-methyl-4-(1H-pyrrol-1-yl)pyridin-2(1H)-one]		IC50 for CBP compared with BRD4 (selectivity) (CBP versus BRD4): lower IC50 for CBP than for BRD4
Cn1cc(-c2cnn(Cc3ccccc3)c2)ccc1=O [Example 1, 5-(1-benzyl-1H-pyrazol-4-yl)-1-methylpyridin-2(1H)-one]		IC50: 500 to 5000 nM
Cn1cc(-c2cnn(C(c3ccccc3)C3CC3)c2)ccc1=O (stereo not shown) [Example 2]		IC50: 500 to 5000 nM
Cn1cc(-c2cnn(Cc3ccccc3C#N)c2)ccc1=O [Example 3, 2-((4-(1-methyl-6-oxo-1,6-dihydropyridin-3-yl)-1H-pyrazol-1-yl)methyl)benzonitrile]	500 to 5000	
Cn1cc(-c2cnn(Cc3cccc(C#N)c3)c2)ccc1=O [Example 4, 3-((4-(1-methyl-6-oxo-1,6-dihydropyridin-3-yl)-1H-pyrazol-1-yl)methyl)benzonitrile]	500 to 5000	
Cn1cc(-c2cnn(Cc3ccccn3)c2)ccc1=O [Example 5, 1-methyl-5-(1-(pyridin-2-ylmethyl)-1H-pyrazol-4-yl)pyridin-2(1H)-one]	500 to 5000	
Cn1cc(-c2cnn(Cc3ccc(F)cc3)c2)ccc1=O [Example 6, 5-(1-(4-fluorobenzyl)-1H-pyrazol-4-yl)-1-methylpyridin-2(1H)-one]	500 to 5000	
Cc1cc(=O)n(C)cc1-c1cnn(Cc2ccccc2)c1 [Example 7, 5-(1-benzyl-1H-pyrazol-4-yl)-1,4-dimethyl-pyridin-2(1H)-one]	< 500	
Cn1cc(-c2cnn(Cc3ccccc3)c2)c2ccccc2c1=O [Example 8, 4-(1-benzyl-1H-pyrazol-4-yl)-2-methyliso-quinolin-1(2H)-one]	< 500	
Cn1cc(-c2cnn(Cc3ccccc3)c2)c2cnccc2c1=O [Example 9, 4-(1-benzyl-1H-pyrazol-4-yl)-2-methyl-2,6-naphthyridin-1(2H)-one]	< 500	
CCn1cc(-c2cnn(Cc3ccccc3)c2)ccc1=O [Example 10, 5-(1-benzyl-1H-pyrazol-4-yl)-1-ethylpyridin-2(1H)-one]	500 to 5000	
Cc1cc(-c2cnn(C(C)c3cccc(C(F)F)c3)c2)cn(C)c1=O (stereo not shown) [Example 11, 5-(1-(1-(3-(difluoro-methyl)phenyl)ethyl)-1H-pyrazol-4-yl)-1,3-dimethylpyridin-2(1H)-one]	< 500	
CC(c1ccccc1)n1cc(-c2ccc(=O)n(C)c2)cn1 (stereo not shown) [Example 12, 1-methyl-5-(1-(1-phenylethyl)-1H-pyrazol-4-yl)pyridin-2(1H)-one]	500 to 5000	
Cc1cc(-c2cnn(Cc3ccccc3)c2)cn(C)c1=O [Example 13, 5-(1-benzyl-1H-pyrazol-4-yl)-1,3-dimethyl-pyridin-2(1H)-one]	< 500	
CC(c1cccc(C#N)c1)n1cc(-c2ccc(=O)n(C)c2)cn1 (stereo not shown) [Example 16, 3-(1-(4-(1-methyl-6-oxo-1,6-dihydropyridin-3-yl)-1H-pyrazol-1-yl)ethyl)benzonitrile]	500 to 5000	
Cc1cc(-c2cnn(C(C)c3ccccc3)c2)cn(C)c1=O (stereo not shown) [Example 17, 1,3-dimethyl-5-(1-(1-phenylethyl)-1H-pyrazol-4-yl)pyridin-2(1H)-one]	< 500	
CC(c1ccccc1Cl)n1cc(-c2ccc(=O)n(C)c2)cn1 (stereo not shown) [Example 19, 5-(1-(1-(2-chlorophenyl)ethyl)-1H-pyrazol-4-yl)-1-methyl-pyridin-2(1H)-one]	< 500	
Cc1cccc(C(C)n2cc(-c3ccc(=O)n(C)c3)cn2)c1 (stereo not shown) [Example 20, 1-methyl-5-(1-(1-(m-tolyl)ethyl)-1H-pyrazol-4-yl)pyridin-2(1H)-one]	< 500	
CC(c1ccccc1)n1cc(-c2cn(C)c(=O)cc2F)cn1 (stereo not shown) [Example 21, 4-fluoro-1-methyl-5-(1-(1-phenylethyl)-1H-pyrazol-4-yl) pyridin-2(1H)-one]	500 to 5000	
Cc1ccccc1C(C)n1cc(-c2ccc(=O)n(C)c2)cn1 (stereo not shown) [Example 22, 1-methyl-5-(1-(1-(o-tolyl)ethyl)-1H-pyrazol-4-yl)pyridin-2(1H)-one]	< 500	

Structure (SMILES)	IC50 [1] [nM]	other results
CC(c1cccc(Cl)c1)n1cc(-c2ccc(=O)n(C)c2)cn1 (stereo not shown) [Example 23, 5-(1-(1-(3-chlorophenyl)ethyl)-1H-pyrazol-4-yl)-1-methyl-pyridin-2(1H)-one]	< 500	
CC(c1cccnc1)n1cc(-c2ccc(=O)n(C)c2)cn1 (stereo not shown) [Example 24, 1-methyl-5-(1-(1-(pyridin-3-yl)ethyl)-1H-pyrazol-4-yl)pyridin-2(1H)-one]	500 to 5000	
CC(c1ccc(C#N)cc1)n1cc(-c2ccc(=O)n(C)c2)cn1 (stereo not shown) [Example 25, 4-(1-(4-(1-methyl-6-oxo-1,6-dihydropyridin-3-yl)-1H-pyrazol-1-yl)ethyl)benzonitrile]	500 to 5000	
CC(c1ccccc1)n1cc(-c2cc(F)c(=O)n(C)c2)cn1 (stereo not shown) [Example 26, 3-fluoro-1-methyl-5-(1-(1-phenylethyl)-1H-pyrazol-4-yl) pyridin-2(1H)-one]	500 to 5000	
COc1ccccc1C(C)n1cc(-c2ccc(=O)n(C)c2)cn1 (stereo not shown) [Example 27, 5-(1-(1-(2-methoxy-phenyl)ethyl)-1H-pyrazol-4-yl)-1-methyl-pyridin-2(1H) one]	< 500	
COc1cccc(C(C)n2cc(-c3ccc(=O)n(C)c3)cn2)c1 (stereo not shown) [Example 28, 5-(1-(1-(3-methoxy-phenyl)ethyl)-1H-pyrazol-4-yl)-1-methyl-pyridin-2(1H)--one]	< 500	
CC(c1ccncc1)n1cc(-c2ccc(=O)n(C)c2)cn1 (stereo not shown) [Example 29, 1-methyl-5-(1-(1-(pyridin-4-yl)ethyl)-1H-pyrazol-4-yl)pyridin-2(1H)-one]	500 to 5000	
Cc1c(-c2cnn(C(C)c3ccccc3)c2)cn(C)c(=O)c1C (stereo not shown) [Example 30, 1,3,4-trimethyl-5-(1-(1-phenylethyl)-1H-pyrazol-4-yl)pyridin-2(1H)-one]	< 500	
CC(c1ccccc1)n1cc(-c2cc(Cl)c(=O)n(C)c2)cn1 (stereo not shown) [Example 31, 3-chloro-1-methyl-5-(1-(1-phenylethyl)-1H-pyrazol-4-yl) pyridin-2(1H)-one]	< 500	
COc1cc(-c2cnn(C(C)c3ccccc3)c2)cn(C)c1=O (stereo not shown) [Example 32, 3-methoxy-1-methyl-5-(1-(1-phenylethyl)-1H-pyrazol-4-yl) pyridin-2(1H)-one]	500 to 5000	
CC(c1ccccc1)n1cc(-c2cn(C)c(=O)c3c2CCC3)cn1 (stereo not shown) [Example 33, 2-methyl-4-(1-(1-phenylethyl)-1H-pyrazol-4-yl)-2,5,6,7-tetrahydro-1H-cyclopenta[c]pyridin-1-one]	< 500	
Cc1cc(-c2cnn(C(C)c3ccccc3)c2C)cn(C)c1=O (stereo not shown) [Example 34, 1,3-dimethyl-5-(5-methyl-1-(1-phenylethyl)-1H-pyrazol-4-yl) pyridin-2(1H)-one]	< 500	
O=c1cc(-c2ccccc2)c(-c2cnn(Cc3ccccc3)c2)cn1C(F)F [Example 35, 5-(1-benzyl-1H-pyrazol-4-yl)-1-(difluoromethyl)-4-phenyl-pyridin-2(1H)-one]	500 to 5000	
CC(C)Oc1cc(=O)n(C)cc1-c1cnn(C(C)c2ccccc2)c1 (stereo not shown) [Example 36, 4-isopropoxy-1-methyl-5-(1-(1-phenylethyl)-1H-pyrazol-4-yl)pyridin-2(1H)-one]	< 500	
Cn1cc(-c2cnn(Cc3ccccc3)c2)c(N2CCC(S(C)(=O)=O)C2)cc1=O (stereo not shown) [Example 37, 5-(1-Benzyl-1H-pyrazol-4-yl)-4-(3-methanesulfonyl-pyrrolidin-1-yl)-1-methyl-1H-pyridin-2-one]	< 500	
CC(c1ccccc1)n1cc(-c2cn(C)c(=O)cc2Cl)cn1 (stereo not shown) [Example 38, 4-chloro-1-methyl-5-(1-(1-phenyl-ethyl)-1H-pyrazol-4-yl) pyridin-2(1H)-one]	< 500	
CC(c1ccccc1)n1cc(-c2cn(C)c(=O)cc2N2CCC2)cn1 (stereo not shown) [Example 40, 4-(azetidin-1-yl)-1-methyl-5-(1-(1-phenylethyl)-1H-pyrazol-4-yl) pyridin-2(1H)-one]	< 500	
CNc1cc(=O)n(C)cc1-c1cnn(C(C)c2ccccc2)c1 (stereo not shown) [Example 42, 1-methyl-4-(methyl-amino)-5-(1-(1-phenylethyl)-1H-pyrazol-1-yl) pyridin-2(1H)-one]	< 500	
CC(c1ccccc1)n1cc(-c2cn(C)c(=O)cc2OCc2ccn(C)n2)cn1 (stereo not shown) [Example 44, 1-methyl-4-((1-methyl-1H-pyrazol-3-yl)methoxy)-5-(1-(1-phenyl-ethyl)-1H-pyrazol-4-yl) pyridin-2(1H)-one]	< 500	
CC(C)Oc1cc(=O)n(C)cc1-c1cnn([C@H](C)c2ccccc2)c1 [Example 45, (R)-4-isopropoxy-1-methyl-5-(1-(1-phenylethyl)-1H-pyrazol-4-yl) pyridin-2(1H)-one]	< 500	
CC(C)Oc1cc(=O)n(C)cc1-c1cnn([C@@H](C)c2ccccc2)c1 [Example 46, (S)-4-isopropoxy-1-methyl-5-(1-(1-phenylethyl)-1H-pyrazol-4-yl) pyridin-2(1H)-one]	< 500	
